Test results published in US9193665B2, “Synthesis of galanal compounds and analogues thereof” (Academia Sinica, priority 2013, dated 2015).

How the values were obtained:
[1] = test system: DIO mice; test: Oral glucose tolerance test (OGTT) in diet-induced obese (DIO) mice; type: in vivo; details: fasted DIO mice, compound by gavage 30 min before oral glucose 2 g/kg, glucose measured 0-90 min, FIG. 2A/2B
Experimental: DIO mice were male C56BL/6J-Narl mice at age of 13 to 15 weeks that have been fed with Western Diet (TestDiet 5342) for 6 to 8 weeks. DIO mice were fasted for five hours and then gavaged with a compound described herein (e.g., compounds RJ21 and RJ27) at indicated dose or with vehicle alone. Thirty minutes later, the mice were gavaged with glucose (2 g/kg body weight). The level of blood glucose was measured right before and every 30 minutes after the glucose challenge up to 90 minutes. The data are expressed as mean±SD and analyzed by Student's t-test using Prism (GraphPad).
The effect of the compounds to the homeostasis of blood glucose using oral glucose tolerance test (OGTT) was examined in this example. Fasted DIO mice were gavaged with RJ21, RJ27, or vehicle alone, and received an oral glucose challenge (2 g/kg body weight) 30 minutes later. The level of blood glucose was measured right before (0 minute) and every 30 minutes after the glucose gavage.

[2] = target: T1, GLP-1 receptor (Rattus norvegicus, UniProt P32301); test: GLP-1 dependent cAMP production from RIN-m5F cells (ELISA); type: cell-based; details: 0.001 mg/ml compound
T1 construct: endogenous in cells; host or cells: RIN-m5F cells
T1 sequence (P32301 22-463): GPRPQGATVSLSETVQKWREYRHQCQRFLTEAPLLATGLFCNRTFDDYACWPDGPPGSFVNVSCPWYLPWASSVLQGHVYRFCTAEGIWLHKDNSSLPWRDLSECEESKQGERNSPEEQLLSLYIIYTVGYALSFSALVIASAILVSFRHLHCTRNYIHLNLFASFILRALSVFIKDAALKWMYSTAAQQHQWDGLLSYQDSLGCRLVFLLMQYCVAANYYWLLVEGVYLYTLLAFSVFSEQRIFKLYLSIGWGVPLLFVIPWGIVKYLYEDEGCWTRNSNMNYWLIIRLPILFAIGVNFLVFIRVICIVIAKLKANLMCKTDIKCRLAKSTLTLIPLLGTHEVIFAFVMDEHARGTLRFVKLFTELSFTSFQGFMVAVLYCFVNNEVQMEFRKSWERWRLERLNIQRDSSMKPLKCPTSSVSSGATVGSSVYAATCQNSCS
Experimental: The cells were cultured in 37° C. with 5% CO2 for 42 hours prior to cAMP production experiment.
The stimulation process was terminated by replacing the stimulation medium with 0.05 ml per well of ice-cold absolute ethanol, and further incubated at −20° C. for 20 min. The cellular cAMP was extracted with 0.085 ml PBS after the ethanol in the wells were evaporated in a vacuum desiccator for 35 min.
The total cAMP from each well was determined by ELISA method according the procedure recommended by the supplier.

| Compound | blood glucose level versus vehicle-treated mice [1] | potentiation of the effect of GLP-1 on cAMP production (factor) ([2]; 30 nM GLP-1, RIN-m5F cells, 15 min) | cAMP generation by the compound by itself (agonist effect) ([2]; RIN-m5F cells, little cAMP response at 3 nM GLP-1) |
| --- | --- | --- | --- |
| galanal B [RJ21] | significantly lower | 2 | did not affect |
| COC(=O)C1=CC[C@H]2[C@@](C=O)(CCC3C(C)(C)CCC[C@@]32C)[C@H](O)C1 (stereo partly shown) [RJ27] | significantly lower | – | – |
